Values quoted from earlier work, collected in US20260183243A1, “PHARMACEUTICAL COMPOSITIONS OF NOR-UDCA” (SHILPA MEDICARE LIMITED, priority 2022, published 2026).

Conditions: background statement, no test described

solubility in an aqueous medium: poorly soluble
SMILES: C[C@H](CC(=O)O)[C@H]1CC[C@H]2[C@@H]3[C@@H](O)C[C@@H]4C[C@H](O)CC[C@]4(C)[C@H]3CC[C@]12C [Nor-UDCA, 24-nor-ursodeoxycholic acid]
